Several values for one entry are separate records, joined by “and”; a condition that tells them apart may be missing. Equal values may be shown once. Read-outs that look alike come from different tables or passages of the source.
Tests used:
liver = type: in vivo, Male Sprague-Dawley rats; details: for Centrilobular collagenous accumulation (Masson's trichrome): 200 mg/kg/day, five-day oral administration;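 as to Cytoplasmic Alteration: Severity grades from None 0% through Minimal Mild Moderate to Marked over 80% tissue affected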;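 as to Inflammation: Severity grades from None 0% through Minimal Mild Moderate to Marked over 80% tissue affected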;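 as to Vacuolation: Severity grades from None 0% through Minimal Mild Moderate to Marked over 80% tissue affected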
Method: All chemical compounds were diluted in corn oil (CAS No. 8001-30-7) (MP Biomedicals, LLC (Solon, Ohio)). The dose volume was 5 mL/kg. Doses were selected based on doses published in the DrugMatrix database, the National Toxicology Program reports, and ATSDR reports.
(§1) In vivo rat experiments were performed at Integrated Laboratory Systems (ILS, Research Triangle Park, NC). ILS's Institutional Animal Care and Use Committee approved all experimental procedures. Research was conducted in compliance with the Animal Welfare Act, and other Federal statutes and regulations relating to animals and experiments involving animals and adheres to principles stated in the “Guide for Care and Use of Laboratory Animals” as prepared by the Committee on Care and Use of Laboratory Animals of the Institute of Laboratory Animal Resources, National Research Council in facilities that are fully accredited by the Association for Assessment and Accreditation of Laboratory Animal Care, International. Male Sprague-Dawley rats (CD IGS [CRL:CD (SD)]) were purchased from Charles River Laboratories (Stone Ridge, N.Y.). Rats weighing 215-245 g (8 weeks old) were used. Briefly, rats were housed two per cage with a rat tunnel enrichment device (Bio-Serve, Frenchtown, N.J.). Rats were fed a Purina Rodent Diet No. 5002 (Ralston Purina Co., St. Louis, Mo.), supplied ad libitum. Animals received reverse osmosis-treated tap water (City of Durham, N.C.) ad libitum, which was changed at least once weekly. Controls in the animal rooms were set to maintain temperatures between 20-In vivo rat experiments were performed at Integrated Laboratory Systems (ILS, Research Triangle Park, NC). ILS's Institutional Animal Care and Use Committee approved all experimental procedures. Research was conducted in compliance with the Animal Welfare Act, and other Federal statutes and regulations relating to animals and experiments involving animals and adheres to principles stated in the “Guide for Care and Use of Laboratory Animals” as prepared by the Committee on Care and Use of Laboratory Animals of the Institute of Laboratory Animal Resources, National Research Council in facilities that are fully accredited by the Association for Assessment and Accreditation of Laboratory Animal Care, International. Male Sprague-Dawley rats (CD IGS [CRL:CD (SD)]) were purchased from Charles River Laboratories (Stone Ridge, N.Y.). Rats weighing 215-245 g (8 weeks old) were used. Briefly, rats were housed two per cage with a rat tunnel enrichment device (Bio-Serve, Frenchtown, N.J.). Rats were fed a Purina Rodent Diet No. 5002 (Ralston Purina Co., St. Louis, Mo.), supplied ad libitum. Animals received reverse osmosis-treated tap water (City of Durham, N.C.) ad libitum, which was changed at least once weekly. Controls in the animal rooms were set to maintain temperatures between 20-25° C. with a relative humidity of 30-70% and a 12-hour light/12-hour dark cycle, lights on at 6:00 AM. Clinically healthy animals were assigned to dose groups using a procedure that stratifies animals across groups by body weight such that mean body weight of each group was not statistically different from any other group using analysis of variance (Statistical Analysis System version 9.2, SAS Institute, Cary, N.C.). Animals were dosed by oral gavage for five consecutive days (+10 minutes from the previous day's dose administration time). Volume was based upon daily body weight.
Animals were observed cageside one hour following daily dose administration, then 1-2 times per day during dosing regimens. Body weights were measured daily prior to dose administration, and prior to euthanasia. Twenty-four hours after the final dose administration, animals were anesthetized with isoflurane then euthanized by exsanguination followed by decapitation. Livers were harvested at necropsy and weighed to within 0.1 g. One half of the left lobe of the liver was fixed in 10% formalin. […]

[1] = type: in vivo, Male Sprague-Dawley rats
Method: as §1
Animals were observed cageside one hour following daily dose administration, then 1-2 times per day during dosing regimens. Body weights were measured daily prior to dose administration, and prior to euthanasia. Twenty-four hours after the final dose administration, animals were anesthetized with isoflurane then euthanized by exsanguination followed by decapitation. Livers were harvested at necropsy and weighed to within 0.1 g. One half of the left lobe of the liver was fixed in 10% formalin. The remaining half of the left lobe of the liver was flash frozen in liquid nitrogen, then stored below −70° C. Liver specimens were frozen in less than three minutes from time of death.

[2] = tested on: 67 genes on the fibrosis gene panel; experiment: Multiplexed fibrosis gene panel (QuantiGene 2.0 Plex / Bioplex) on liver RNA
Method: mRNA is isolated and purified from lysed tissue biopsy specimens. The target mRNA is incubated with beads conjugated to capture probes (each probe is an oligonucleotides specific for one of the genes in the panel). The target is hybridized to the probe by a capture extender-capture probe interaction. Specific mRNA targets hybridize overnight to the respective beads. The signal is amplified by incubating mRNA-capture probe pairs by affixing an amplifier affixed to a biotinylated label probe. Streptavidin-conjugated phycoerythrin (SAPE) is bound to the biotinylated probe to amplify the signal. The signal is detected and quantified by Bioplex suspension array instrumentation, which measures the SAPE fluorescence signal proportional to the amount of mRNA transcripts captured by the bead.
Candidate genes identified by co-expression modules and pathway/network approaches were fabricated into a custom gene panel using a commercial source (the QuantiGene 2.0 Plex assay, Affymetrix, Santa Clara, Calif.). A total of 71 genes plus 3 housekeeping genes were selected. Using 150 ng RNA input, samples were processed following manufacturer's instructions for purified RNA with use of the HandHeld Magnetic Plate Washer. Plates were read immediately following the final wash using the BioPlex 200 instrument (BioRad, Hercules, Calif.). The following parameters were set on the BioPlex instrument: sample size=100 μL; DD Gate=5,000-25,000; Timeout=45 sec; Bead Event/Bead Region=100.
For each sample, the average signal intensity was determined as recommended by the manufacturer. Duplicates were averaged. The average background signal for each gene was subtracted. Assay limit of detection was determined by adding three standard deviations of assay background signals to the average intensity of the background control wells. All intensities lower than the limit of detection for each probe was set to one unit above the probe's limit of detection. Probes with all intensities below the assay limit of detection were removed from the final analysis. The test gene signal was divided by the average intensities of the three normalization genes (Gapdh, Hprt1, Ppib). For each test gene, the fold change was calculated by dividing the normalized value for the treated samples by the normalized value of the vehicle-treated controls. Fold changes were plotted as log2 fold change. Gene expression data were imported into Partek Genomics Suite 6.0 (Partek, Inc., St. Louis, Mo.). Principal component analysis was used for multivariate interpretation to determine sources of variation across sample groups (Joliffe I T, Morgan B J. Principal component analysis and exploratory factor analysis. Statistical methods in medical research 1992; 1(1):69-95). Differentially expressed genes were determined by analysis of variance (ANOVA) with contrasts, setting the ANOVA factors as toxicant and the histopathological endpoint of fibrosis (any score >0). ANOVA variables were fibrosis score 0 (none) vs. score of >0 (minimal, mild, moderate, and marked). For hierarchical biclustering, differentially expressed genes were standardized by setting the genes expressed to a mean of zero and scaling to a standard deviation of one. Euclidean geometry was used to cluster row and column dissimilarity using a method of average linkage.
Chemical-dose groups were down-selected based on histopathology to conform to the 96-well assay format of the multiplexed panel of presumptive fibrosis genes. Three of the four dose groups were evaluated for the fibrogenic chemicals allyl alcohol and 4,4′-methylenedianiline. A single dose was selected with group-matched vehicle controls for each of the remaining chemicals. […] The highest dose of bromobenzene was selected because the vacuolation pathology was only observed at this dose.
Isolated liver RNA was incubated with microbead-bound capture probes specific for the 71 presumptive fibrogenic genes and three housekeeping normalization genes.

[3] = Carbon Tetrachloride 200 mg/kg, animal 54
[4] = histopathology score, individual animals, Carbon Tetrachloride 200, Bromobenzene 785, Dexamethasone 1 mg/kg
[5] = liver RNA, individual animals, Carbon Tetrachloride 200, Bromobenzene 785, Dexamethasone 1 mg/kg

ClC(Cl)(Cl)Cl [carbon tetrachloride]
Centrilobular collagenous accumulation (Masson's trichrome) (liver): pre-fibrogenic lesions in centrilobular region
Centrilobular collagenous accumulation (Masson's trichrome) (liver; listed as Carbon tetrachloride): caused prefibrotic centrilobular collagenous accumulation
Bile Duct Hyperplasia and Fibroplasia (liver; [3]): 0
Cytoplasmic Alteration (liver; [3]): 0
Inflammation (liver; [3]): 0
Necrosis (liver; [3]): 1
Vacuolation (liver; [3]): 3
Combined histopathological scores as percent of animals with pathology (liver; across dose groups, five days (figure legend)): dose-dependent increase in severe pathology
Histopathological evidence of vacuolation and/or glycogen accumulation (liver; exposures on the gene panel (FIG. 9 legend)): correlated with histopathological evidence of vacuolation and/or glyocgen accumulation
Bile Duct Hyperplasia and Fibroplasia (liver; [4]): 0
Inflammation (liver; [4]): 0
Vacuolation (liver; [4]): 4 and 3 (2×)
Fibrosis histopathology (liver; low-dose (carbon tetrachloride: all doses)): without fibrosis
Vacuolation (liver; oral gavage five days, across doses): dose-dependent increase in vacuolation indicative of lipid accumulation without evidence of fibrosis
Body weight change ([1]; all doses): Body weight gain was less than controls at all doses
Body weight gain over the five experimental dosing days ([1]; dose groups): decrease in body weight gain
A2m differential expression [2, 3]: −3.423
Arf6 differential expression [2, 3]: 0.270
Cxcl1 differential expression [2, 3]: 0.190
RT1-DMa differential expression [2, 3]: 0.225
Differential Expression of A2m [2, 5]: −2.891 and −2.439 and −5.167
Differential Expression of Angptl3 [2, 5]: −0.612 and −1.071 and −0.753 and −0.775
Differential Expression of Anxa2 [2, 5]: 0.553 and 0.586 and 0.834 and 0.587
Differential Expression of Apoc [2, 5]: −0.311 and −0.356 and −0.337 and −0.414
Differential Expression of Arf6 [2, 5]: 0.172 and 0.167 and 0.214
Differential Expression of Arpc1b [2, 5]: 1.102 and 1.145 and 1.554 and 1.382
Differential Expression of Arrb1 [2, 5]: 1.846 and 2.288 and 2.226 and 1.692
Differential Expression of C1qb [2, 5]: 0.268 and 0.290 and 0.085 and 0.332
Differential Expression of CD9 [2, 5]: −0.279 and −0.103 and 0.754 and −0.347
Differential Expression of CD53 [2, 5]: 0.486 and 1.094 and 1.315 and 1.262
Differential Expression of CP [2, 5]: −0.227 and −0.328 and −0.317 and −0.414
Differential Expression of Capg [2, 5]: 0.433 and 0.855 and 0.909 and 0.968
Differential Expression of Ccl2 [2, 5]: 1.671 and 1.662 and 2.378 and 1.370
Differential Expression of Col1a1 [2, 5]: 1.336 and 1.411 and 1.309 and 1.774
Differential Expression of Col1a2 [2, 5]: 0.249 and 0.458 and 0.329 and 0.672
Differential Expression of Col4a1 [2, 5]: −0.521 and −0.024 and −0.441 and 0.104
Differential Expression of Col5a2 [2, 5]: 1.411 and 2.330 and 2.442 and 2.138
Differential Expression of Ctgf [2, 5]: 2.135 and 2.232 and 2.664 and 1.663
Differential Expression of Cxcl1 [2, 5]: −0.500 and −0.165 and −0.462
Differential Expression of Cxcl12 [2, 5]: 0.040 and 0.320 and 0.041 and 0.403
Differential Expression of Cxcl16 [2, 5]: 1.440 and 1.782 and 1.992 and 1.656
Differential Expression of Cyba [2, 5]: 0.522 and 0.799 and 0.888 and 0.887
Differential Expression of Cyp2c11 [2, 5]: −1.357 and −3.301 and −0.339 and −0.904
Differential Expression of Dsc2 [2, 5]: 0.091 and −0.280 and −0.204 and −0.265
Differential Expression of Fam102b [2, 5]: −0.378 and −0.140 and −0.011 and −0.240
Differential Expression of Fam105a [2, 5]: 0.309 and 0.576 and 0.985 and 0.758
Differential Expression of Fbn1 [2, 5]: −0.149 and 0.230 and −0.294 and 0.107
Differential Expression of Fn1 [2, 5]: −0.120 and −0.152 and −0.364 and −0.262
Differential Expression of Fstl1 [2, 5]: −0.259 and 0.017 and −0.180 and 0.025
Differential Expression of Fxyd5 [2, 5]: 0.160 and 0.404 and 0.507 and 0.213
Differential Expression of Gpnmb [2, 5]: 1.494 and 2.232 and 3.101 and 2.714
Differential Expression of Igfals [2, 5]: −0.528 and −0.092 and −0.771 and −0.189
Differential Expression of Igfbp1 [2, 5]: 0.019 and 0.070 and 0.480 and −0.925
Differential Expression of Igfbp2 [2, 5]: −0.542 and 1.416 and 0.505 and −1.839
Differential Expression of Igfbp3 [2, 5]: −0.324 and 0.063 and −0.304 and −0.113
Differential Expression of Itga1 [2, 5]: 0.220 and 0.585 and 0.503 and 0.756
Differential Expression of Itgb2 [2, 5]: −0.115 and 0.502 and 0.455 and 0.302
Differential Expression of Lame2 [2, 5]: 2.323 and 2.130 and 2.338 and 1.341
Differential Expression of Lbp [2, 5]: 0.594 and 0.379 and 0.665 and 0.050
Differential Expression of Len2 [2, 5]: −1.654 and 0.356 and 1.528 and 2.126
Differential Expression of Lgals1 [2, 5]: 0.936 and 0.978 and 1.986 and 1.602
Differential Expression of Lgals3 [2, 5]: 0.994 and 1.444 and 2.024 and 1.736
Differential Expression of Lgals3bp [2, 5]: 0.391 and 0.486 and 0.360 and 0.302
Differential Expression of Lox [2, 5]: −0.215 and −0.493 and 0.022 and 0.077
Differential Expression of Lrp1 [2, 5]: −0.329 and −0.337 and −0.524 and −0.671
Differential Expression of Lum [2, 5]: 0.298 and −0.201 and 0.404 and 0.442
Differential Expression of Mmp2 [2, 5]: −0.062 and 0.311 and 0.610 and −0.241
Differential Expression of Nid1 [2, 5]: −0.021 and 0.232 and 0.186 and 0.154
Differential Expression of Pcolce [2, 5]: 0.002 and 0.354 and 0.651 and −0.401
Differential Expression of Pkm2 [2, 5]: 0.077 and 0.586 and 0.642 and 0.663
Differential Expression of Plat [2, 5]: −0.025 and −0.411 and −0.289 and −0.385
Differential Expression of Plau [2, 5]: 0.039 and 0.765 and 0.947 and 0.720
Differential Expression of Plod2 [2, 5]: −0.129 and −0.357 and −0.045 and −0.258
Differential Expression of RT1-DMa [2, 5]: 0.711 and 0.673 and 1.089
Differential Expression of RT1-Da [2, 5]: 0.559 and 0.918 and 1.213 and 1.280
Differential Expression of S100A6 [2, 5]: −0.079 and −0.686 and 0.408 and −0.019
Differential Expression of S100A11 [2, 5]: 0.119 and 0.421 and 0.731 and 0.599
Differential Expression of Serpine1 [2, 5]: 0.309 and −0.345 and 0.467 and −0.524
Differential Expression of Serping1 [2, 5]: −0.712 and −0.714 and −0.546 and −0.514
Differential Expression of Slc25a24 [2, 5]: −0.245 and −0.511 and −0.262 and −0.615
Differential Expression of Sod2 [2, 5]: 0.022 and 0.009 and −0.014 and −0.116
Differential Expression of TagIn2 [2, 5]: 0.218 and 0.282 and 0.110 and 0.153
Differential Expression of Tgfb1 [2, 5]: −0.322 and 0.107 and −0.102 and −0.395
Differential Expression of Timp1 [2, 5]: 0.939 and 1.200 and 1.645 and 1.241
Differential Expression of Vhl [2, 5]: 2.369 and 2.626 and 2.628 and 2.130
Differential Expression of Vim [2, 5]: 0.044 and 0.004 and 0.348 and 0.360
Differential Expression of Vtn [2, 5]: −0.291 and −0.381 and −0.494 and −0.473
Panel gene expression relative to other chemical-dose groups ([2]; liver, 67-gene panel): mid-way between fibrosis-positive chemical-dose groups and non-fibrogenic chemical-dose groups
Hierarchical biclustering of log2 fold-changes in panel gene expression ([2]; liver, 67 genes): clustered mid-way between non-fibrogenic and fibrogenic doses of the other fibrogenic chemicals

Reference: US11371097B2, “Articles for diagnosis of liver fibrosis” (THE GOVERNMENT OF THE UNITED STATES, as represented by THE …, priority 2015, dated 2022)
